According to PMC6694155, “PTPσ inhibitors promote hematopoietic stem cell regeneration” (Nature Communications, 2019):
Several values for one entry are separate records, joined by “and”; a condition that tells them apart may be missing. Identical values can stand only once.

How the values were obtained:
[1] = tested on: RHOA-GTP in BM lin− cells; experiment: G-LISA activation assay: RHOA-GTP; format: cell-based, mouse; settings: for RHOA-GTP level (G-LISA): Supplementary Figure 7b (left panel)
Description: The RAC1-GTP, RHOA-GTP, and CDC42-GTP activation levels in BM lin^− cells were measured using a colorimetric-based RAC1-, RHOA-, and CDC42 G-LISA Activation Assay Kit (Cytoskeleton, Inc.). BM cells from femurs and tibias were isolated from 12-week-old Ptprs^+/+ and Ptprs^−/− mice. Cells were then depleted of lineage-committed cells with Direct Lineage Cell Depletion Kit (Miltenyi Biotec, #130-110-470; 1:5). The BM lin^− cell fraction was then serum starved in Iscove’s modified Dulbecco’s medium (IMDM) and treated with either vehicle (equal amount of DMSO) or 1 μg/mL DJ001 for 10 min at 37 °C. After treatment, cells were washed with ice-cold PBS and then placed in lysis buffer supplemented with protease inhibitor. Lysate concentrations were measured by Pierce^TM BCA Protein Assay Kit (ThermoFisher Scientific). G-LISA was performed according to the manufacturer’s instructions. Briefly, 12.5 μg of lysates was added to a GTP-binding protein pre-coated plate and active RAC1-GTP, RHOA-GTP, or CDC42-GTP levels were measured at 490 nm using a PowerWave XS2 microplate reader (BioTek).

panel of 21 Phosphatases = experiment: PhosphataseProfiler screen, whole panel; format: biochemical; settings: DJ001 at 10 μM and 1 μM
Description: (§1) Compound DJ001 was evaluated in a PhosphataseProfiler™ screen at 10 μM and 1 μM (2.7 μg/mL and 0.27 μg/mL) concentrations at Eurofins Pharma Discovery Services UK (Study number UK022-0004033) against a panel of 21 Phosphatases. In each experiment, the respective reference antagonist/agonist was tested directly with DJ001 and the data were compared with historical values determined at Eurofins. DJ001 compound inhibition was calculated as percentage inhibition of the enzymatic activity compared with control.

BM KSL cells = experiment: Annexin V/7AAD apoptosis assay of BM KSL cells from mice 24 h post 500 cGy TBI; format: in vivo, mouse
Description: (§2) Eight- to ten-week-old female C57BL/6 mice were irradiated with 500 cGy TBI followed by subcutaneous injections of 5 mg/kg DJ001 or vehicle, or 5 mg/kg DJ001 plus 40 mg/kg EHT1864. Twenty four hours after irradiation, mice were killed to collect BM cells for Annexin V apoptosis analysis. BM cells were stained with APC-Cy7-conjugated anti-mouse Sca1 (BD Biosciences, #560654, 1:100), PE-conjugated anti-ckit (BD Biosciences, #553355, 1:100), and V450 lineage cocktail (BD Biosciences, #561301, 1:10) antibodies for 30 min at 4 °C. Cells were then resuspended in 1× Annexin V binding buffer and then stained with FITC-conjugated anti-Annexin V antibody (BD Biosciences, #556547,1:50) and 7AAD antibody (BD Biosciences, #559925, 1:40)[68]. For in vitro human BM cell apoptosis assays, isolated human BM CD34^+ cells were plated into 96-well plates and then irradiated with 300 cGy. Immediately after irradiation, cells were treated with 5 μg/mL DJ001 or vehicle for 24 h and then collected for Annexin V cell apoptosis analysis. For cell cycle analysis, BM KSL cells were irradiated at 300 cGy and then treated with 1 μg/mL DJ001 or vehicle for 36 h. Subsequently, cells were resuspended in 200 μL of PBS, fixed with 1 mL of ice-cold fixation solution (0.25% Saponin, 2.5% PFA, 2% fetal calf serum (FCS) in PBS), and incubated for 30 min on ice. Cells were washed in Saponin buffer (0.25% Saponin, 2% FCS in PBS) and resuspended in 200 μL of Saponin buffer containing 20 μL of FITC-conjugated anti-Ki67 antibody (BD Biosciences, #556026, 1:10) and 1 μL of RNase (Qiagen, #19101, 100 mg/mL). After 30 min of incubation, cells were washed in Saponin buffer and resuspended for flow analysis in 200 μL of Saponin buffer containing 5 μL 7AAD (BD Biosciences, #559925, 1:40).

[2] = molecular target: T1, PTPMEG1 (Megakaryocyte Protein-Tyrosine Phosphatase 1) (Homo sapiens, UniProt P29074); experiment: PhosphataseProfiler screen: PTPMEG1; format: biochemical; settings: replicates
T1 construct: purchased Eurofins Pharma Discovery Services UK
T1 sequence (P29074 whole entry): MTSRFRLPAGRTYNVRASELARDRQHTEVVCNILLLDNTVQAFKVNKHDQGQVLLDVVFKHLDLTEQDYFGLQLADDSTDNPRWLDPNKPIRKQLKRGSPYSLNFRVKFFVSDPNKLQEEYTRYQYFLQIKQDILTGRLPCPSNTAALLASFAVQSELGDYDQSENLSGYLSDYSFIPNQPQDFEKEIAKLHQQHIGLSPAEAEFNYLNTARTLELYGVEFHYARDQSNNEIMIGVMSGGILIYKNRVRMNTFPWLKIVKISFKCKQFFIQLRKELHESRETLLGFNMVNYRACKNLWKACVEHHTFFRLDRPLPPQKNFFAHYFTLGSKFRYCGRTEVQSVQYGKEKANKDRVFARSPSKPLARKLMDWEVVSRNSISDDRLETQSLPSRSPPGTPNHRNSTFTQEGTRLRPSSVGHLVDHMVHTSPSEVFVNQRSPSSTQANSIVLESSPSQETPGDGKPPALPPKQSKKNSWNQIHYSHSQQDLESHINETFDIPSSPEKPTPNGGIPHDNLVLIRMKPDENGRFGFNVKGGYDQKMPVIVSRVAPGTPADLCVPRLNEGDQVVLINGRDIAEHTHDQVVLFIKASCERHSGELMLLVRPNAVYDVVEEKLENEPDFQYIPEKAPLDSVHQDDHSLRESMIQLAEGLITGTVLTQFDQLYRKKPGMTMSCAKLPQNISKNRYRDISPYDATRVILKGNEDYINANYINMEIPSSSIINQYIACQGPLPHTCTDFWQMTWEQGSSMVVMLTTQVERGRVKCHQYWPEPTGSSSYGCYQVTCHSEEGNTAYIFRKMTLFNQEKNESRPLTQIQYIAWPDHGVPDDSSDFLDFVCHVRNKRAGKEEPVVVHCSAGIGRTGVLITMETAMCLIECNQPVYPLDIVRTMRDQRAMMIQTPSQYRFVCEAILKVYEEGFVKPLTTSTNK
Description: as §1

p-PAK1 in BM KSL cells = experiment: p-PAK1 phospho-flow cytometry of BM KSL cells; format: cell-based, mouse
Description: Intracellular flow cytometric analysis was performed on irradiated (300 cGy) or non-irradiated, sorted KSL cells after treatment with 1 μg/mL DJ001 or control (equal volumes of DMSO) for 24 h. At 24 h after irradiation, cells were fixed with 4% PFA for 10 min, followed by permeabilization using 0.25% saponin in PBS. Cells were washed again and stained with antibody at the recommended concentrations for 30 min at RT. Intracellular antibodies and phospho-flow antibodies used were as follows: FITC-conjugated anti-BCL-XL (Abcam, #26148, 1:100), active RAC1-GTP antibody (NewEast Biosciences, #26903, 1:100) and anti-PAK1 (phospho S144) + PAK2 (phospho S141) + PAK3 (phospho S154) antibody (Abcam, #40795, 1:100), and FITC-conjugated goat anti-rabbit IgG H&L (Abcam, #97050, 1:200).

human CD34+CD38− cells = experiment: Annexin V/7AAD apoptosis assay of irradiated human BM CD34+ cells; format: cell-based
Description: as §2

[3] = irradiated human BM CD34+ cells, replicates

O=C(/C=C\Nc1cccc([N+](=O)[O-])c1)c1ccccc1 [DJ001, (Z)-3-((3-nitrophenyl)amino)-1-phenylprop-2-en-1-one]
activation of RhoA ([1]; BM lin− cells, 1 μg/mL DJ001, 10 min): did not alter the activation | RHOA-GTP level (G-LISA) ([1]; Ptprs+/+ cells): 0.1099 and 0.0821 and 0.1369 | RHOA-GTP level (G-LISA) ([1]; Ptprs-/- cells): 0.1117 and 0.0668 and 0.0845 | inhibitory activity against 20 other phosphatases (panel of 21 Phosphatases): no inhibitory activity | percentage of apoptotic BM KSL cells vs vehicle (BM KSL cells; 24 h following 500 cGy TBI): significantly decreased the percentage of apoptotic BM KSL cells | Figure 3e: Annexin V/7AAD apoptosis of BM KSL cells (BM KSL cells; 24 h post 500 cGy TBI, individual mice): 14.6 and 11.3 and 12.5 and 12.9 and 14.7 and 10.4 and 14.5 and 15.5 and 16.7 | Supplementary Figure 1: PTP MEG1 activity ([2]; 2.7 μg/mL DJ001): 100 and 92 and 105 | Supplementary Figure 1: PTP MEG1 activity ([2]; 0.27 g/mL DJ001): 103 and 114 and 105 | phosphorylation of PAK1 (p-PAK1 in BM KSL cells; BM KSL cells, 1 μg/mL DJ001): increased phosphorylation | Figure 3d: p-PAK1 in BM KSL cells (p-PAK1 in BM KSL cells; individual replicates): 50.24 and 54.07 and 49.55 and 58.02 and 54.95 | radiation-induced apoptosis of human CD34+CD38− cells (human CD34+CD38− cells; 24 h after 300 cGy): decreased radiation-induced apoptosis | Figure 5c (left panel): Annexin V/7AAD assay (human CD34+CD38− cells; [3]): 85.79 and 85.23 and 84.4 and 88.36 and 87.91 and 86.9 and 86.4 and 88.8 and 87.8 and 88 | Figure 5c (right panel): Annexin V/7AAD assay (human CD34+CD38− cells; [3]): 10.98 and 10.1 and 10.94 and 7.63 and 8.04 and 12.5 and 13.3 and 11 and 12.1 and 11.7
